Measurements as given in patent US20260137697A1, “THIAZOLO[5,4-D]PYRIMIDINE COMPOUNDS, COMPOSITIONS COMPRISING THEM AND USES THEREOF” (University de Montreal, priority 2022, published 2026).

Each molecule was assayed against T1, ARAF (Homo sapiens, UniProt P10398) (assay: ARAF kinase activity assay (AlphaLISA p-MEK 1/2)). Conditions: Table A; 10 μM ATP, kinase-dead MEK1 substrate.
T1 construct: ARAF kinase reactions were rigorously the same with the exception that kinase concentration was raised to 3.75 nM (cat. No. 1768-0000-1; Reaction Biology)
T1 sequence (P10398 303-606 limits assumed): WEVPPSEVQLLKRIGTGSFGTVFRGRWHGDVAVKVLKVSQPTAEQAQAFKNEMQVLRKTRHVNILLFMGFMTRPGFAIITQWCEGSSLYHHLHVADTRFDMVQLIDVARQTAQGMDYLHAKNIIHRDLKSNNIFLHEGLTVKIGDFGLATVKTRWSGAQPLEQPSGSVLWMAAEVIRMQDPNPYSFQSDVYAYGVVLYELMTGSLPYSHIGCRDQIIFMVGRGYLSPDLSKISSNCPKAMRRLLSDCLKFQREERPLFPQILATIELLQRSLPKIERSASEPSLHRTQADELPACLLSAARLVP
Assay type: biochemical
Protocol: Compound preparation: solid samples of each substance in 1dram vials were suspended in DMSO (Fisher Scientific) at a stock concentration of 20 mM. Stocks were kept at −20° C. and protected from light. If solubility of the compound at 20 mM appeared to be an issue, the initial concentration of the DMSO stock was changed to 10 mM or 5 mM.
In vitro enzymatic reactions were used for evaluating compounds intrinsic activity against BRAF, CRAF and ARAF. For BRAF and CRAF, 0.375 nM of purified GST-tagged kinases (cat. No. B4062-10UG and cat. No. R1656-10UG respectively from Millipore Sigma) were incubated with 75 nM of kinase-dead MEK1 substrate (cat. No. 40075; BPS Bioscience) in the presence of 10 μM of Ultrapure ATP (cat. No. V9102; Promega; part V915A) with and without the test compound in a buffer containing 50 mM HEPES pH 7.5, 10 mM MgCl2, 1 mM EDTA, 0.01% Brij-35 and 2 mM DTT. Separate reactions were performed with the MEK1 substrate and ATP as a blank control. ARAF kinase reactions were rigorously the same with the exception that kinase concentration was raised to 3.75 nM (cat. No. 1768-0000-1; Reaction Biology).
For compound treatment, 5 μL/well of test substance solution are placed in a 384-well proxyplate (Perkin Elmer) and mixed with 2× concentrated kinase reactions. The dilution series is selected so that nine concentrations cover a range from 100 nM to 0.01 nM. […] The final concentration of DMSO in the assay is set at 0.05%.
ARAF kinase reactions were carried out for a total of 2 hours at 30° C. and then stopped by addition of EDTA at a final concentration of 40 mM. Reactions were then detected using the AlphaLISA® SureFire® Ultra™ p-MEK 1/2 (Ser218/222) (PerkinElmer) kit. Reactions were performed with 5 μL of kinase reaction according to the manufacturer's specifications in 384-well proxyplates (Perkin Elmer) followed by overnight incubation of the AlphaLISA® reactions at room temperature in a humidified chamber. After completion of the detection reactions, the signals were recorded on a Synergy Neo2 plate reader (Biotek) equipped with AlphaLISA® filters. The effect of each compound dilution on the pMEK signal generated by ARAF reactions was expressed in % inhibition and calculated as follows. An internal 100% inhibition control (average of luminescence in kinase reactions comprising kinase dead MEK1 substrate alone) was included in each plate to measure of pMEK background and was subtracted from each data point. The average of DMSO (vehicle) controls (set as 0% inhibition) was also established and used to calculate % inhibition:
IC50 values were obtained by plotting the kinase inhibition values and fitting the dose-activity curves using a log(agonist) versus response—variable slope (four parameters) function using either GraphPadPrism (V7.0) or Dotmatics Screening Ultra platform. Standards included in the ARAF kinase assay were Belvarafenib (MedChem Express cat. No. HY-109080; CAS No. 1446113-23-0), LXH254 (MedChem Express cat. No. HY-112089; CAS No. 1800398-38-2) and BGB283 (cat. No. HY-18957; CAS No. 1446090-79-4).

Row | IC50 [nM] | SMILES
1 | > 10 | Cc1ccc2c(Nc3cccc(Cl)c3F)nccc2c1NC(=O)c1csc2c(N)ncnc12 [Belvarafenib, reference compound]
2 | 1 to 10 | Cc1c(F)cccc1S(=O)(=O)Nc1ccc(F)c(Nc2ncnc3sc(-n4cc(C(=O)N5C6CCC5CN(C)C6)c5ccccc54)nc23)c1F [Example 44]
3 | 1 to 10 | N#CC1(c2cccc3c2ncn3-c2nc3c(Nc4c(F)ccc(NS(=O)(=O)c5cccc(Cl)c5Cl)c4F)ncnc3s2)CC1 [Example 122]
